Assay results: article PMC9818021, “Targets, Mechanisms and Cytotoxicity of Half-Sandwich Ir(III) Complexes Are Modulated by Structural Modifications on the Benzazole Ancillary Ligand” (Cancers, 2022)

Columns and labels:
[1] = system: A2780 (epithelial ovarian carcinoma cells); experiment: MTT cytotoxicity assay; format: cell-based, human; settings: A2780, 48 h
Method: (§1) Cell culture. Epithelial ovarian carcinoma cells (A2780) that acquired resistance to cisplatin epithelial ovarian carcinoma cells (A2780cis), colon adenocarcinoma cells (SW480) and epithelial lung adenocarcinoma cells (A549) were provided by Sigma Aldrich. A549 and SW480 cells were grown in Dulbecco′s Modified Eagle′s Medium (DMEM), supplemented with 10% Fetal Bovine Serum (FBS) and 1% penicillin, streptomycin and 1% glutamine for A549 and 1% amphotericin B for SW480. The A2780 and A2780cis were grown in RPMI 1640 supplemented with 10% Fetal Bovine Serum (FBS), 1% glutamine and 1% penicillin, streptomycin and amphotericin B. All cells were incubated in a humidified incubator at 37 °C under a 5% CO2 atmosphere and grown in 100 mm culture dishes to approximately 70–80% confluence. For subculturing, cells were detached with Trypsin-EDTA (Sigma). A549-gal were derived from A549 cultured in glucose-free medium supplemented with 10 mM galactose (Sigma) for at least 10 passes.
(§2) Cytotoxicity. MTT Assay and IC50 estimation. The cytotoxicity of 1[C,NH-Cl], 2[C,NMe-Cl], 3[N,NH-Cl]Cl, 4[N,NMe-Cl]Cl, 5[CNH2,NH-Cl]Cl, 6[CNH2,S-Cl]Cl, 7[CO,NH-Cl] and 8[CO,S-Cl] in A2780, A2780cis, SW480 and A549 carcinoma cells was evaluated by the MTT colorimetric assay. Cells were seeded in 96-well plates at 5000 cells per well and incubated at 37 °C, 5% CO2. After 24 h, the medium was removed and replaced with fresh medium with different concentrations of the compounds under study, and they were incubated for 48 h. Final DMSO concentration was kept below 0.7% in wells. For a negative control, one sequence of cells was left untreated and for vehicle control, cells treated with DMSO were included. For cell viability experiments preincubating with NAC (N-Acetyl-L-Cysteine), the cells were pre-treated with NAC, 10 mM for 2 h before the incubation with complex 1[C,NH-Cl] for 24 h. Then, the medium was removed from the wells, and 100 µL MTT (5 mg/mL) was added. After an incubation time of 4 h, 100 μL of solubilizing detergent solution (SDS, 10% in HCL 0.01 M) was added and kept in the incubator overnight. Cell growth inhibition was detected by measuring the absorbance of each well at 595 nm using a BioTek Cytation5 microplate reader. Each test was repeated in quadruplicate in three independent experiments for each cell line. The percentage of survival cells was calculated using absorbance measurements compared with control and the IC50 estimation using Graph Pad Prism version 6.01.

[2] = system: A549 (epithelial lung adenocarcinoma cells); experiment: MTT cytotoxicity assay; format: cell-based, human; settings: A549, 48 h
Method: as §1, §2

[3] = system: A2780cis (ovarian, acquired resistance to cisplatin); experiment: MTT cytotoxicity assay; format: cell-based, human; settings: 48 h; for IC50: A2780cis
Method: as §1, §2

[4] = system: SW480 (colon adenocarcinoma cells); experiment: MTT cytotoxicity assay; format: cell-based, human; settings: SW480, 48 h
Method: as §1, §2

[5] = system: ROS (superoxide anion, hydrogen peroxide); experiment: ROS generation (DHE and H2DCFDA, flow cytometry); format: cell-based; settings: after 3 h
Method: (§3) Specific assays with 1[C,NH] complex were performed according to manufacturer’s instructions using the following reagents from Molecular Probes (Thermo Fisher Scientific): Measurements of ROS: Dihydroethidium (DHE, D11347) and 2′, 7′-dichlorodihydrofluorescein diacetate (H2DCFDA, D399); detection of caspases 3/7: CellEvent Caspase-3/7 Green Detection Reagent (C10423); Cell viability: Live/Dead Cell Imaging Kit (R37601); Analysis of cytosolic calcium concentration: Fluo3/AM (F23915); Analysis of MMP: Tetramethylrhodamine methyl ester perchlorate (TMRM, T668). RT-qPCR’s assays were performed with the following primers/probes from Thermo Fisher Scientific: DCP1A (Hs00218198-m1), FOSB (Hs00171851-m1), EGR1(Hs0015928-m1), ATF3 (Hs00231069-m1), DDIT3 (Hs00358796-g1), PP1R15A (Hs00169585-m1), CHAC1(Hs00225520-m1), MIR9-1 (Hs04231512-s1), ATP1B2 (Hs00155922-m1), BBC3 (Hs00248075-m1), BCL2L11 (Hs00798019-s1), PMAIP1 (Hs00560402-m1), SKP2 (Hs01021864-m1) and HIST1H1B (Hs00271207-s1). RT-qPCR experiments were performed as described.

plasmid DNA (pUC18) = experiment: Agarose gel electrophoresis of plasmid DNA; format: binding, Escherichia coli; settings: pUC18 20 µM, overnight 37 °C
Method: Agarose Gel electrophoresis of plasmid DNA Overnight cultures of the strain DH5α of Escherichia coli were isolated with the Quiagen DNA purification kit. Then, 20 µM (in base pairs) of plasmid DNA (pUC18) was incubated with different concentrations of the synthesized iridium complexes overnight at 37 °C. Afterwards, 2 μL of loading buffer were added to 10 μL of the incubated samples and loaded onto a 1% agarose gel. Electrophoresis was run in TAE 1× at 6.5 V/cm during 2.5 h. Then, the agarose gel was stained with ethidium bromide 1 μg/mL and visualized with a Gel Doc XR+ Imaging System (Bio-Rad, Hercules, CA, USA).

Calf thymus DNA = experiment: DNA viscosity measurements; format: binding; settings: as a function of CD/CP, overnight incubation
Method: Viscosity measurements were performed using a Micro-Ubbelohde viscometer whose temperature was controlled externally (25 ± 0.1 °C). The flow time was measured with a digital stopwatch. Mean values of triplicated measurements were taken to evaluate the DNA viscosity in the absence (η0) and in the presence, (η) of iridium complexes. The viscosity readings were expressed as L/L0 = (η/η0)^1/3 versus the CD/CP ratio. The data was analysed using […] where t0 and tDNA are the buffer and polynucleotide solution flow times, respectively, whereas t is the flow time of the Ir-complex/DNA mixture after the stabilization period.

A549 cells = experiment: Mitochondrial membrane potential (TMRM); format: cell-based, human; settings: 16 µM, TMRM 50 nM
Method: as §3

Row | SMILES | IC50 [1] [µM] | IC50 [2] [µM] | IC50 [3] [µM] | IC50 [4] [µM] | DHE fluorescence (superoxide anion levels) [5] | Resistance Factor (RF) IC50,A2780CIS/IC50,A2780 [3] | Migration pattern of plasmid DNA (plasmid DNA (pUC18)) | Relative viscosity of DNA (L/L0) (Calf thymus DNA) | Mitochondrial membrane potential (MMP) (A549 cells)
1 | Cc1c(C)c(C)[c-](C)c1C.Cn1c2[n+](c3ccccc31)[Ir]([Cl])[n+]1ccccc1-2.[Cl-] [4[N,NMe], [(η^5-Cp*)IrCl(κ^2-N,N-pyMebim)]Cl] | > 100 | > 100 | > 100 | > 100 |  |  |  |  | 
2 | Cc1c(C)c(C)[c-](C)c1C.[Cl][Ir]1[O]c2ccccc2-c2sc3ccccc3[n+]21 [8[CO,S], [(η^5-Cp*)IrCl(κ^2-O,N-hpbtz)]] | 2 ± 1 | 41 ± 5 | 6 ± 2 | 34 ± 1 | increased | > 2 |  |  | 
3 | Cc1c(C)c(C)[c-](C)c1C.[Cl][Ir]1[O]c2ccccc2-c2[nH]c3ccccc3[n+]21 [7[CO,NH], [(η^5-Cp*)IrCl(κ^2-O,N-hpbim)]] | 14 ± 1 | 43 ± 3 | 42 ± 1 | > 100 |  | > 2 |  |  | 
4 | Cc1c(C)c(C)[c-](C)c1C.Cn1c2[n+](c3ccccc31)[Ir]([Cl])[c]1ccccc1-2 [2[C,NMe], [(η^5-Cp*)IrCl(κ^2-N,C-NMepbim)]] | 9 ± 1 | 10 ± 1 | 13 ± 1 |  | increased | no cross-resistance | unable to interact with DNA | No variations | 
5 | Cc1c(C)c(C)[c-](C)c1C.[Cl][Ir]1[c]2ccccc2-c2[nH]c3ccccc3[n+]21 [1[C,NH], [(η^5-Cp*)IrCl(κ^2-N,C-pbim)]] | 5 ± 2 | 10 ± 1 | 5 ± 1 | 5 ± 2 | increased | no cross-resistance | unable to interact with DNA | No variations | quick and deep dissipation of MMP
6 | Cc1c(C)c(C)[c-](C)c1C.[Cl-].[Cl][Ir]1[NH2+]c2ccccc2-c2sc3ccccc3[n+]21 [6[CNH2,S], [(η^5-Cp*)IrCl(κ^2-N,N-apbtz)]Cl] | > 100 | > 100 | 48 ± 2 | 40 ± 1 |  |  |  |  | 
7 | Cc1c(C)c(C)[c-](C)c1C.[Cl-].[Cl][Ir]1[n+]2ccccc2-c2[nH]c3ccccc3[n+]21 [3[N,NH], [(η^5-Cp*)IrCl(κ^2-N,N-pybim)]Cl] | 84 ± 1 | > 100 | 48 ± 1 | 90 ± 1 |  |  |  | drastically declined | 
8 | Cc1c(C)c(C)[c-](C)c1C.[Cl-].[Cl][Ir]1[NH2+]c2ccccc2-c2[nH]c3ccccc3[n+]21 [5[CNH2,NH], [(η^5-Cp*)IrCl(κ^2-N,N-apbim)]Cl] | 17 ± 1 | > 100 | 30 ± 1 | 34 ± 1 |  |  |  |  | 
